Columns and labels:
[1] = tested on: intracellular expression of MO2 in lymphocytes; test: Blocking of monocyte secretion of CD14 in vitro; intracellular MO2 staining in lymphocytes; type: cell-based; conditions: cell secretion blocked; staining with anti MO2 antibodies
From the text: Further support for the concept that lymphocytes are capable of MO2 uptake is found in another experiment in which monocyte secretion of CD14 in vitro was blocked with Brefeldin A (a drug blocking the Golgi system thus inhibiting cell secretion).

[2] = tested on: human lymphocytes and human CD3 positive lymphocytes; test: Gliotoxin- or PMA-induced apoptosis of human mononuclear cells cultured overnight; FACS readout by DiOC6(3), 7AAD or cell size; type: cell-based; conditions: for protection of lymphocytes from gliotoxin-induced apoptosis: CD3+ cultures, DioC6(3) staining, pMO2 0.5 or 0.25 mg/ml (0.2 and 0.1 mM), FIG. 11; for protective (anti-apoptotic) effect in vitro: DiOC6(3), 7AAD and cell size, FIGS. 11-13
Protocol: The changes in the mitochondria membrane potential can be measured with 3,3′-Dihexyloxacarbocyanine iodide (Dioc6(3)). The binding to the mitochondria membrane is relative to its potential, the highest binding occurs in live and intact cells; the lowest in dead cells. The binding is monitored by flow cytometry (FL1 channel).
After overnight culture (see below), cells are washed in PBS and are treated with 40 nM DiOC6(3) for 15 min at 37° C. Cells are then washed in PBS, stained for lymphocytes surface markers such as CD3/CD4/CD8, with the appropriate antibodies, for 30 min at 4° C., washed again in PBS, resuspended in 0.5 ml PBS and analyzed using the FACS (flow cytometry).
7AAD is a nucleic acid dye that binds to […] DNA, selectively to GC regions of DNA. No binding is observed in live cells. The binding to apoptotic cells is proportional to the degree of apoptosis and membrane damage. The 7AAD fluorescence is detected in the far-red range of the spectrum (650 nm), in the FL3 channel.
After overnight culture (see below), cells are washed with PBS and are stained with monoclonal antibodies (CD3/4/8) for 30 min at 4° C., then washed again in PBS. Cells are then incubated with 7AAD (20 μg/ml) for 20 min at 4° C. in the dark and directly analyzed using the FACS (flow cytometry).
As a result of the process of apoptosis, cells undergo a cytoplasm shrinkage, which can be detected as a decrease in cell size as observed by the forward scatter position of the cells analyzed by FACS; the smaller lymphocytes are apoptotic, the larger are intact.
Mononuclear cells, freshly obtained from peripheral blood on a Ficoll-Hypaque gradient are washed in PBS and resuspended in RPMI supplemented with 10% fetal calf serum, glutamine, antibiotics, non-essential amino acids and sodium pyruvate, at a concentration of 4×10^6 cells per ml. Cells (0.5 ml per well) are incubated overnight, in 24 well plates, in the presence of Gliotoxin (0.1 μg/ml) or PMA (1 μg/ml) and with pMO2 or pSCR peptides (0.2, 0.1, 0.05 mM equivalent to 0.5, 0.25 and 0.125 mg/ml); as a control DMSO—the diluent of the peptides—was used at the appropriate dilution or with recombinant human CD14 (10 and 5 μg/ml). For the experiments aimed at neutralizing the human rCD14, monoclonal antibodies against CD14 or against actin (as a control) are added, together with the CD14, at a final concentration of 15 μg/ml.
After the overnight incubation, cells are processed for apoptosis assessment using the methods described above.
The effect of recombinant human CD14 on the induction of apoptosis in human lymphocytes and in human CD3 positive lymphocytes was tested in vitro. Human mononuclear cells obtained from healthy individuals were incubated with apoptosis inducers, gliotoxin or PMA. […] Namely, recombinant human CD14 protects lymphocytes from gliotoxin-induced apoptosis. […] Two parameters were measured: cell size (A), and mitochondrial membrane potential determined by Dioc6 (3) binding (B). In (A) there is a shift to the left (characteristic to apoptotic cells) under gliotoxin treatment compared to “medium”, and a reversal to normal size in the presence of rhCD14. In (B) low binding of Dioc6 (3) in the presence of gliotoxin (characteristic to apoptotic cells) can be observed, and the effect is reversed by rhCD14.
In addition, in order to investigate the spectrum of effective concentrations of rhCD14, mononuclear cells were cultured overnight in the presence of gliotoxin and varying concentrations of rhCD14, ranging from 10 to 0.6 μg/ml. Apoptosis of CD3+ cells was measured with Dioc6(3). As expected, cells cultured without gliotoxin included a very low number of apoptotic cells, about 0.3% of the cultured cells.
As explained above, the epitopes recognized by this monoclonal MO2 antibody were mapped using a random peptide library, and one of the specific peptides (amino acids 139-160 of CD14; pMO2) was synthesized. […]

[3] = tested on: CD3 positive and CD3 negative cells; test: Intracellular binding / penetration of pMO2-biotin into mononuclear cells (streptavidin-APC, FACS); type: cell-based, human
Protocol: The cells were incubated for 3 hours with pMO2-biotin or DMSO (the peptide diluent) as a control. In order to visualize the biotin-labeled pMO2, the cells were washed and stained with anti-CD3 antibodies and fluorescent streptavidin (streptavidin-APC), with or without prior fixation and permeabilization.

[4] = 0.2 mM peptide, gliotoxin, FIGS. 14, 15

Row | Molecule | change of intracellular expression of MO2 in lymphocytes [1] | efficiency in protecting cells from apoptosis [2, 4] | protection of lymphocytes from gliotoxin-induced apoptosis [2] | protective (anti-apoptotic) effect in vitro ([2]; gliotoxin) | penetration into lymphocytes ([3]; 3 hours incubation with pMO2-biotin, visualized only upon fixation and permeabilization, FIG. 16) | time of incubation for penetration into the majority of the lymphocytes ([3]; CD3 positive and CD3 negative cells in vitro, FIG. 17) | percent protection from apoptosis ([2]; 0.05 mM peptide, gliotoxin vs gliotoxin and control diluent, FIG. 14) | efficiency in protecting cells from apoptosis ([2]; 0.1 mM peptide, gliotoxin, FIG. 14) | effect on induced apoptosis of lymphocytes and of CD3 positive lymphocytes ([2]; apoptosis inducers gliotoxin or PMA, added during the incubation) | concentration at which inhibition of apoptosis is already effective ([2]; gliotoxin, overnight, rhCD14 titrated 10 to 0.6 μg/ml, CD3+ cells, Dioc6(3), FIG. 6)
1 | C[C@H]1CCC/C=C/[C@@H]2C[C@H](O)C[C@H]2[C@H](O)/C=C/C(=O)O1 [Brefeldin A] | substantial decrease | – | – | – | – | – | – | – | – | –
2 | ALGTSLARLSNRLWSVGTAWSR (listed as Homo sapiens) [pSCR, scrambled control peptide based on the same amino acids as pMO2, reference compound] | – | no protection | not | did not show any protective effect | – | – | – | – | – | –
3 | ATGLALSSLRLRNVSWATGRSW [pMO2] | – | very high efficiency | equally protect | retain the anti-apoptotic effect of the whole recombinant human CD14 | penetrates lymphocytes | ≤ 10 min | about 45% | very high efficiency | – | –
4 | rhCD14: recombinant human soluble CD14 polypeptide, not anchored to the cell membrane (SEQ ID NO: 5) (protein, listed as Homo sapiens) MERASCLLLLLLPLVHVSATTPEPCELDDEDFRCVCNFSEPQPDWSEAFQCVSAVEVEIHAGGLNLEPFLKRVDADADPRQYADTVKALRVRRLTVGAAQVPAQLLVGALRVLAYSRLKELTLEDLKITGTMPPLPLEATGLALSSLRLRNVSWATGRSWLAELQQWLKPGLKVLSIAQAHSPAFSCEQVRAFPALTSLDLSDNPGLGERGLMAALCPHKFPAIQNLALRNTGMETPTGVCAALAAAGVQPHSLDLSHNSLRATVNPSAPRCMWSSALNSLNLSFAGLEQVPKGLPAKLRVLDLSCNRLNRAPQPDELPEVDNLTLDGNPFLVPGTALPHEGSMNSGVVPACARSTLSVGVSGTLVLLQGARGFA | – | – | equally protect | – | – | – | – | – | blocked significantly | 1.25 µg/mL

Source: patent US20100331239A1, “CD14 AND PEPTIDES THEREOF FOR PROTECTION OF CELLS AGAINST CELL DEATH” (THE MEDICAL RESEARCH, INFRASTRUCTURE AND HEALTH SERVICES, priority 2008, published 2010)
